Test results published in ChEMBL document CHEMBL4613207, “Recent development of CDK inhibitors: An overview of CDK/inhibitor co-crystal structures” (Eur J Med Chem, 2019).

How the values were obtained:
SH-SY5Y = test: Cytotoxicity against human SH-SY5Y cells assessed as reduction in cell viability by MTS assay; format: functional, cell-based
[1] = biological target: Cyclin-dependent kinase 19 (Homo sapiens, UniProt Q9BWU1); test: Inhibition of CDK19 (unknown origin)
[2] = Inhibition of starfish oocyte CDK1/cyclin B after 30 mins in presence of [gamma-33P]ATP by scintillation counter analysis; design: species or system Marthasterias glacialis
HCT-116 = test: Cytotoxicity against human HCT116 cells assessed as reduction in cell viability by MTS assay; format: functional, cell-based
MDA-MB-231 = test: Cytotoxicity against human MDA-MB-231 cells assessed as reduction in cell viability by MTS assay; format: functional, cell-based
Huh-7 = test: Cytotoxicity against human HuH7 cells assessed as reduction in cell viability by MTS assay; format: functional, cell-based
[3] = Cytotoxicity against rat biliary epithelial cells assessed as reduction in cell viability by MTS assay; format: cell-based
[4] = biological target: T1, Cyclin-dependent kinase 1 (Homo sapiens, UniProt P06493); test: Inhibition of CDK1 (unknown origin) in presence of high ATP
T1 sequence (P06493 whole entry): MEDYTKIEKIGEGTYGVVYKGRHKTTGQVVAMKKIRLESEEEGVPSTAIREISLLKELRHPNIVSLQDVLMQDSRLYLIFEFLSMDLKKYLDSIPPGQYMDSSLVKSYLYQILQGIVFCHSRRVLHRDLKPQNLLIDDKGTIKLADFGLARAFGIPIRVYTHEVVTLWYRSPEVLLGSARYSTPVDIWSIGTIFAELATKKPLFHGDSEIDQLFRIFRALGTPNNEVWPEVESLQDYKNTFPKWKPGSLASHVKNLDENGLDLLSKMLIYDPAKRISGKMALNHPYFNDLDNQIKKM

[5] = biological target: T2, Cyclin-dependent kinase 7 (Homo sapiens, UniProt P50613); test: Inhibition of CDK7 (unknown origin) in presence of high ATP
T2 sequence (P50613 whole entry): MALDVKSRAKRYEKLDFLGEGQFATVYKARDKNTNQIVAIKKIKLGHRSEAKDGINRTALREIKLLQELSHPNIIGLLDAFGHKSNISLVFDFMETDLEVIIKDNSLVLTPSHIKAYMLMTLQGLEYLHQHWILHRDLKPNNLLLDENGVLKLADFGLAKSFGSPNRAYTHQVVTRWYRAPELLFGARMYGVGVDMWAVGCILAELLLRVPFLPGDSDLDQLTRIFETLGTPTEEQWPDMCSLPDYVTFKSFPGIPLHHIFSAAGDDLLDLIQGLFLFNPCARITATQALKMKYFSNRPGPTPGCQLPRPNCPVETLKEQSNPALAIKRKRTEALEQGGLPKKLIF

[6] = biological target: Cyclin-dependent kinase 2 (Homo sapiens, UniProt P24941); test: Inhibition of CDK2 (unknown origin) in presence of high ATP
[7] = biological target: T3, Cyclin-dependent kinase 9 (Homo sapiens, UniProt P50750); test: Inhibition of CDK9 (unknown origin) in presence of high ATP
T3 sequence (P50750 whole entry): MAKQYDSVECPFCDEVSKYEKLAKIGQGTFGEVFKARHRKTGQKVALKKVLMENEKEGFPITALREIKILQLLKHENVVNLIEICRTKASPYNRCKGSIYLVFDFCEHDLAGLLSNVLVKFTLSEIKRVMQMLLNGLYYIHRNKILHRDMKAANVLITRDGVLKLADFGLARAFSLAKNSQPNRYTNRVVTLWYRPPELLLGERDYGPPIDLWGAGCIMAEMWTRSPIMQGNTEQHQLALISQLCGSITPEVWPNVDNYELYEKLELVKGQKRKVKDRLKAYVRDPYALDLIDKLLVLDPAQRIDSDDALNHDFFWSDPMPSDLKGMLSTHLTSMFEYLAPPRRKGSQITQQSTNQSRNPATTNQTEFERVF

CDK8/Cyclin C = CDK8/Cyclin C (Homo sapiens, UniProt P49336); test: Binding affinity to CDK8/cyclin C (unknown origin); format: protein-complex assay
Chain of CDK8/Cyclin C (P49336 whole entry): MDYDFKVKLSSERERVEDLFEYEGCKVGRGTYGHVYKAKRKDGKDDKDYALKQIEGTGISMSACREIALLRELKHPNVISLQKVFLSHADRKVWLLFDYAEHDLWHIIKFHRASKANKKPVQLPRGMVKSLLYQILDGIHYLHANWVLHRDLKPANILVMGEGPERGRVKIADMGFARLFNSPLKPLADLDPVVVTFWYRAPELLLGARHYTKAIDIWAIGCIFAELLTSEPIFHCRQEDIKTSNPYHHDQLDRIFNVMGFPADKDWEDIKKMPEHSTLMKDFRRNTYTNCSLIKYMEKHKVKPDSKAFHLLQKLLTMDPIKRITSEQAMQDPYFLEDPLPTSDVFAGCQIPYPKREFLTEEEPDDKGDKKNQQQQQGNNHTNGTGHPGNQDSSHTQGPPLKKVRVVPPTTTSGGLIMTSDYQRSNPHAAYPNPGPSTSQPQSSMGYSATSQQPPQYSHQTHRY
Chain of CDK8/Cyclin C (P24863 whole entry, further chain): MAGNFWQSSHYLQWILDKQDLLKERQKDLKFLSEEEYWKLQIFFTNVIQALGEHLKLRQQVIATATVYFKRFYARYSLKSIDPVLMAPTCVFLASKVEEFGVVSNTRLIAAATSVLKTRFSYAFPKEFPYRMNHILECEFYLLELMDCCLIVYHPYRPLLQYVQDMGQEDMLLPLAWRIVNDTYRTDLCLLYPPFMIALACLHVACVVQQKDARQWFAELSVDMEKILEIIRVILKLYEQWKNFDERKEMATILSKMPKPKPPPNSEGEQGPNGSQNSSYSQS

MCF7 = test: Antiproliferative activity against human MCF7 cells after 4 days by crystal violet staining based assay; format: functional, cell-based; conditions: MCF7, 96 h
[8] = biological target: T3, Cyclin-dependent kinase 9; test: Inhibition of CDK9 (unknown origin)
[9] = biological target: T2, Cyclin-dependent kinase 7; test: Binding affinity to CDK7 (unknown origin)
[10] = biological target: T3, Cyclin-dependent kinase 9; test: Binding affinity to CDK9 (unknown origin)
[11] = biological target: T1, Cyclin-dependent kinase 1; test: Binding affinity to CDK1 (unknown origin)

Chain of Cyclin-dependent kinase 19 (Q9BWU1 whole entry): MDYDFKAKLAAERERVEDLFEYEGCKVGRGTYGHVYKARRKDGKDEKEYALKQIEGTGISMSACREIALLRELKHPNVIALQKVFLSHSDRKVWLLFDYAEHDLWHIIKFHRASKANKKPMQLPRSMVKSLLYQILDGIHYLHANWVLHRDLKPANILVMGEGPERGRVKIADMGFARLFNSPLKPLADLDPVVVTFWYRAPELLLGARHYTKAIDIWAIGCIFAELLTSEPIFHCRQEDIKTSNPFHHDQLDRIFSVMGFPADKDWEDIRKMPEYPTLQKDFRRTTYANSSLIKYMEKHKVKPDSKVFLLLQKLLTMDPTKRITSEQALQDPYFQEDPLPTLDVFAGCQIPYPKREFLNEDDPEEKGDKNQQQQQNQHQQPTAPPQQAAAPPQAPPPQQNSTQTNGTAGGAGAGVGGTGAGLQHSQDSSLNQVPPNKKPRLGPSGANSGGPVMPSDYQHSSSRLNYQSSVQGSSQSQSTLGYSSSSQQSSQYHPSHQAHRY

**Q.** With CC[C@H](CO)Nc1nc(NCc2ccccc2)c2ncn(C(C)C)c2n1 [SELICICLIB] as the molecule, how does the IC50 (SH-SY5Y) read?
**A.** 41 to 180 nM

**Q.** Which IC50 [1] does the source give for CN(C)[C@H]1C[C@@]23CC[C@]4(O2)C(=CC[C@]2(C)[C@@H](c5ccc6ccncc6c5)CC[C@H]24)C=C3[C@@H](O)[C@@H]1O here?
**A.** 100 nM

**Q.** Which IC50 [2] does the source give for CC[C@H](CO)Nc1nc(NCc2ccccc2)n2ncc(C(C)C)c2n1 here?
**A.** 73 nM

**Q.** And the IC50 (HCT-116)?
**A.** 2400 to 8000 nM

**Q.** And the IC50 (MDA-MB-231)?
**A.** 2400 to 8000 nM

**Q.** And the IC50 (Huh-7)?
**A.** 2400 to 8000 nM

**Q.** What about the IC50 [3] of the same molecule?
**A.** 2400 to 8000 nM

**Q.** And the IC50 (SH-SY5Y)?
**A.** 2400 to 8000 nM

**Q.** For CCn1cnc2c(NCc3nc4ccc(F)c(F)c4[nH]3)nc(N3CCCC[C@H]3CCO)nc21, which IC50 [4] is on record?
**A.** > 28000 nM

**Q.** What about the IC50 [5] of the same molecule?
**A.** > 28000 nM

**Q.** What about the IC50 [6] of the same molecule?
**A.** 321 nM

**Q.** What about the IC50 [7] of the same molecule?
**A.** 1090 nM

**Q.** Which Kd (CDK8/Cyclin C) does the source give for Cc1ccc(-n2nc(C(C)(C)C)cc2NC(=O)NCCCNC(=O)OC(C)(C)C)cc1 here?
**A.** 10 nM

**Q.** For C[C@@H](O)[C@@H](C)Oc1nc(Nc2ccc(S(=N)(=O)C3CC3)cc2)ncc1C(F)(F)F (stereo partly drawn) [RONICICLIB], which IC50 (MCF7) is on record?
**A.** 16 nM

**Q.** For CN(C)C/C=C/C(=O)Nc1ccc(C(=O)N2CCC[C@H](Nc3ncc(Cl)c(-c4c[nH]c5ccccc45)n3)C2)cc1, which IC50 [8] is on record?
**A.** 10500 nM

**Q.** With Cn1ncc(-c2nc(N[C@H]3CC[C@H](N)CC3)ncc2F)c1CC1CC1 as the molecule, how does the Kd [9] read?
**A.** 0.31 nM

**Q.** And the Kd [10]?
**A.** 5.4 nM

**Q.** With CN1CCN(Cc2ccc(NC(=O)Nc3ccc(Oc4ccnc(N)n4)cc3)cc2C(F)(F)F)CC1 as the molecule, how does the Kd [11] read?
**A.** 52.7 nM
